In patent publication US20130190310A1, “MIG6 AND THERAPEUTIC EFFICACY” (THE JOHNS HOPKINS UNIVERSITY, priority 2010, published 2013):
“Also recorded” adds a separate entry of the source.

Assays:
Mig6 [1] = experiment: Immunoblot analysis of Mig6 expression in SCC-R cells; type: cell-based, human; conditions: for expression of Mig6: AKI or U0126 10 or 20 μM, LY294002 10 or 25 μM, rapamycin 1 or 2 μM
From the text: Antibodies against EGFR, phospho-tyrosine (P-Tyr-100), phospho-EGFR (Tyr1068), phospho-HER2/ErbB2 (Tyr1248), AKT, phospho-AKT (Ser473), p44/42 MAPK, (Erk1/2), phospho-p44/42 MAPK (Erk1/2) (Thr202/Tyr204), and PTEN were obtained from Cell Signaling Technology, Inc. (Beverly, Mass.). Monoclonal anti-P-Actin antibody was obtained from Sigma (St. Louis, Mo.). Polyclonal anti-Mig6 antibody was a generous gift from Dr. Ferby (15). […] Equal amounts of protein were mixed with Laemmli sample buffer, run on 4-12% NuPAGE gels and transferred to nitrocellulose membrane (Bio-Rad Laboratories, Hercules, Calif.). The membrane was probed with primary antibody followed by HRP-conjugated appropriate secondary antibodies (Santa Cruz Biotech, Santa Cruz, Calif.), and detected by enhanced chemiluminescence (ECL, GE Health Care, Piscataway, N.J.).

EGFR [2] = experiment: Immunoblot/densitometric analysis of phospho-EGFR/total EGFR in SCC-R cells; type: cell-based, human; conditions: inhibitor 24 hrs (25 μM LY294002, 20 μM AKI, 2 μM rapamycin, 20 μM U0126), then 10 ng/ml EGF 30 min
Description: (§1) Antibodies against EGFR, phospho-tyrosine (P-Tyr-100), phospho-EGFR (Tyr1068), phospho-HER2/ErbB2 (Tyr1248), AKT, phospho-AKT (Ser473), p44/42 MAPK, (Erk1/2), phospho-p44/42 MAPK (Erk1/2) (Thr202/Tyr204), and PTEN were obtained from Cell Signaling Technology, Inc. (Beverly, Mass.). Monoclonal anti-P-Actin antibody was obtained from Sigma (St. Louis, Mo.). Polyclonal anti-Mig6 antibody was a generous gift from Dr. Ferby (15). When appropriate, cells were cultured in serum free medium overnight, pretreated with the indicated inhibitors for 3 hrs or […], and the treated with 10 ng/ml EGF for 10 or 30 min. Equal amounts of protein were mixed with Laemmli sample buffer, run on 4-12% NuPAGE gels and transferred to nitrocellulose membrane (Bio-Rad Laboratories, Hercules, Calif.). The membrane was probed with primary antibody followed by HRP-conjugated appropriate secondary antibodies (Santa Cruz Biotech, Santa Cruz, Calif.), and detected by enhanced chemiluminescence (ECL, GE Health Care, Piscataway, N.J.).

Mig6 [3] = experiment: Immunoblot analysis of Mig6 expression in 358 cells; type: cell-based, human; conditions: 24 hrs
Description: as §1

SCC-S and SCC-R cells = experiment: Cell viability and drug sensitivity assay (Calcein AM), erlotinib-sensitive vs -resistant isogenic cells; type: cell-based, human; conditions: erlotinib 72 hrs, cell viability
Description: Drug resistant cell lines were generated via a process of slowly escalating exposure to erlotinib, as reported previously (16). SCC-S is used to designate the parental UM-SCCI cells exposed to DMSO, and SCC-R refers to the erlotinib resistant clone.
(§2) Cells were plated at a density of 3000/well in 96-well plates. The following day, cells were treated with 0, 0.01, 0.033, 0.1, 0.33, 1, or 3.3 μM erlotinib for an additional 72 hrs. Cell viability was subsequently assayed using Calcein AM (Invitrogen), Fluorescence signals generated as a result of Calcein AM cleavage by viable cells were read by a Molecular Devices plate reader (Sunnyvale, Calif.) using an excitation frequency of 480 nm, and an emission frequency of 535 nm.

EGFR [4] = experiment: Immunoblot of EGF-induced EGFR phosphorylation in bladder and lung cancer cell lines; type: cell-based, human; conditions: all bladder and lung cancer cell lines tested; 0.1 μM erlotinib 3 hrs before 10 ng/ml EGF
Description: as §1, with “Equal amounts of protein were mixed with Laemmli sample buffer, run on 4-12% NuPAGE gels and transferred to nitrocellulose membrane (Bio-Rad Laboratories, Hercules, Calif.).” left out

H358 cells = experiment: Cell viability of parental and TGF β-induced H358 cells; type: cell-based, human; conditions: TGF-β-induced mesenchymal-like cells vs parental
Description: as §2

Mig6 [5] = experiment: Immunoblot analysis of Mig6 expression in 358/TGFβ1-day 21 and 358/TGFβ3-day 21 cells; type: cell-based, human; conditions: 24 hrs
Description: as §1

BML-5 = experiment: Erlotinib treatment of directly xenografted lung tumors; type: in vivo, nude mice; conditions: BML-5 compared with BML-1, BML-7, BML-11
Description: (§3) The xenografts were generated and erlotinib treatment was performed as published previously (17, 18). Relative tumor growth inhibition (TGI) was calculated as the relative tumor growth of treated mice divided by relative tumor growth of control mice (T/C). The animals were maintained in accordance to guidelines of the American Association of Laboratory Animal Care and the research protocol was approved by the Johns Hopkins University Animal Use and Care Committee.

PANC410 = experiment: Erlotinib treatment of directly xenografted pancreatic tumors; type: in vivo, nude mice
Description: as §3

PANC420 = experiment: as above; type: in vivo, nude mice
Description: as §3

PANC140 = experiment: as above; type: in vivo, nude mice
Description: as §3

PANC294 = experiment: as above; type: in vivo, nude mice
Description: as §3

PANC215 = experiment: as above; type: in vivo, nude mice
Description: The xenografts were generated and erlotinib treatment was performed as published previously (17, 18). Relative tumor growth inhibition (TGI) was calculated as the relative tumor growth of treated mice divided by relative tumor growth of control mice (T/C).

[6] = 150 mg per day; cited from earlier work
serum proteins = conditions: cited from earlier work
tumors in Errfil−/− mice = conditions: cited from earlier work
[7] = system: tumors in control Errfil+/+ mice; conditions: cited from earlier work
NSCLC = conditions: patients randomized to gefinitib or placebo; cited from earlier work

## O=c1[nH]c2ccccc2n1C1CCN(Cc2ccc(-c3nc4cc5[nH]cnc5cc4nc3-c3ccccc3)cc2)CC1 [AKI]
Mig6 [1]; 24 hrs
  expression of Mig6: decreased
EGFR [2]
  ratio of phospho-EGFR to EGFR: increased

## N#CC(=C(/N)Sc1ccccc1N)/C(C#N)=C(\N)Sc1ccccc1N [U0126]
Mig6 [1]; 24 hrs
  expression of Mig6: decreased
EGFR [2]
  ratio of phospho-EGFR to EGFR: increased
Mig6 [3]
  expression of Mig6: reduced

## C#Cc1cccc(Nc2ncnc3cc(OCCOC)c(OCCOC)cc23)c1 [erlotinib]
SCC-S and SCC-R cells
  IC50 of SCC-R cells relative to SCC-S cells: > 10 times
Mig6 [1]; 0.2 or 1 μM erlotinib, 24 hrs
  basal Mig6 expression: only a slight decrease
Mig6 [1]; erlotinib pretreatment 30 min then 10 ng/ml EGF 24 hrs
  EGF-induced Mig6 upregulation: completely abolish
EGFR [4]
  ligand-induced EGFR phosphorylation: effectively block
H358 cells
  resistance to erlotinib, cell viability: acquired increasing resistance
Mig6 [3]
  expression of Mig6: reduced
Mig6 [5]
  expression of Mig6: failed to suppress
BML-5
  response of lung xenograft to erlotinib (tumor growth): sensitive; also recorded: better response
PANC410
  erlotinib responsiveness of xenografted pancreatic tumor: erlotinib-sensitive
PANC420
  erlotinib responsiveness of xenografted pancreatic tumor: erlotinib-resistant
PANC140
  erlotinib responsiveness of xenografted pancreatic tumor: erlotinib-resistant
PANC294
  erlotinib responsiveness of xenografted pancreatic tumor: erlotinib-resistant
PANC215
  erlotinib responsiveness of xenografted pancreatic tumor: erlotinib-resistant
[6]
  steady-state serum concentration, median: 2.9 µM
Serum proteins
  bound to serum proteins: 90%

## COc1cc2ncnc(Nc3ccc(F)c(Cl)c3)c2cc1OCCCN1CCOCC1 [gefitinib]
Tumors in Errfil−/− mice; Errfil−/− mice
  sensitivity of carcinogen-induced tumors to gefitinib: unusually sensitive
Tumors in Errfil−/− mice; in 1 week following initiation of gefitinib treatment
  tumor regression: more than 50%
[7]
  tumor response to gefitinib: did not respond
NSCLC
  overall difference of PFS vs placebo: 7 days
